Laboratory results as given in ChEMBL document CHEMBL1201862, “PubChem BioAssay data set” (2004).
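Following 48 hours of exposure in 96-well plates, responses at five concentrations were used to interpolate endpoints linearly. The concentration for 50% growth inhibition is given as GI50.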 Active and inactive are the calls of the source. No stated cut-off is given here; in the data, active = GI50 up to about 1.1 µM and inactive = higher.

Legend:
Assay in all cases: DTP human tumour cell line panel, 48 h
[1] = test system: NCI/ADR-RES
[2] = test system: MCF7
[3] = test system: RXF 393
[4] = test system: KM12
[5] = test system: SF-295
[6] = test system: SNB-75
[7] = test system: NCI-H23
[8] = test system: HL-60
[9] = test system: OVCAR-8
[10] = test system: SK-MEL-5
[11] = test system: Hs-578T
[12] = test system: K562
[13] = test system: SR
[14] = test system: HOP-92
[15] = test system: SNB-19
[16] = test system: LOX IMVI
[17] = test system: SN12C
[18] = test system: OVCAR-3
[19] = test system: NCI-H522
[20] = test system: MDA-MB-231

Compound	GI50 [1]	GI50 [2]	GI50 [3]	GI50 [4]	GI50 [5]	GI50 [6]	GI50 [7]	GI50 [8]	GI50 [9]	GI50 [10]	GI50 [11]	GI50 [12]	GI50 [13]	GI50 [14]	GI50 [15]	GI50 [16]	GI50 [17]	GI50 [18]	GI50 [19]	GI50 [20]
O=C(CCl)N1CCN(c2ccccc2)CC1	44.1 µM (inactive)	19.5 µM (inactive)	19.1 µM (inactive)	19.3 µM (inactive)	19.1 µM (inactive)	16.7 µM (inactive)	18.1 µM (inactive)	20 µM (inactive)	32.1 µM (inactive)	16.3 µM (inactive)	32.8 µM (inactive)	36.4 µM (inactive)	26.7 µM (inactive)	21.4 µM (inactive)	37.7 µM (inactive)	–	–	–	–	–
Brc1ccc(-c2ccc(-c3ccc(Br)s3)s2)s1	> 100 µM (inactive)	> 100 µM (inactive)	> 100 µM (inactive)	> 100 µM (inactive)	> 100 µM (inactive)	> 100 µM (inactive)	> 100 µM (inactive)	> 100 µM (inactive)	> 100 µM (inactive)	> 100 µM (inactive)	> 100 µM (inactive)	> 100 µM (inactive)	> 100 µM (inactive)	> 100 µM (inactive)	> 100 µM (inactive)	> 100 µM (inactive)	> 100 µM (inactive)	> 100 µM (inactive)	–	–
CN(C)CCN(C)c1ccc2c(=O)n(CCN(C)C)c(=O)n3c4ccccc4c(=O)c1c23	2.29 µM (inactive)	0.345 µM (active)	2.81 µM (inactive)	1.26 µM (inactive)	0.34 µM (active)	0.316 µM (active)	0.54 µM (active)	0.0627 µM (active)	0.582 µM (active)	0.48 µM (active)	2.12 µM (inactive)	0.14 µM (active)	< 0.01 µM (active)	0.145 µM (active)	0.518 µM (active)	0.35 µM (active)	0.0964 µM (active)	1.89 µM (inactive)	0.259 µM (active)	–
CN(C)C=C1C(=O)c2c(Br)sc(Br)c2C1=O	26.1 µM (inactive)	33.7 µM (inactive)	17.5 µM (inactive)	30.1 µM (inactive)	19.7 µM (inactive)	17 µM (inactive)	15.1 µM (inactive)	16.3 µM (inactive)	22.9 µM (inactive)	16.3 µM (inactive)	15.6 µM (inactive)	22.1 µM (inactive)	–	16.6 µM (inactive)	28.7 µM (inactive)	20 µM (inactive)	45.6 µM (inactive)	19.1 µM (inactive)	15.9 µM (inactive)	–
COc1cc2cc(c1Cl)N(C)C(=O)C[C@H](OC(=O)[C@H](C)N(C)C(C)=O)[C@]1(C)O[C@H]1[C@H](C)[C@@H]1C[C@@](O)(NC(=O)O1)[C@H](OC)/C=C/C=C(/C)C2	0.0975 µM (active)	0.018 µM (active)	0.0236 µM (active)	0.0149 µM (active)	0.0174 µM (active)	0.0174 µM (active)	0.0201 µM (active)	0.0125 µM (active)	0.0218 µM (active)	0.0135 µM (active)	0.0219 µM (active)	0.0176 µM (active)	0.0156 µM (active)	0.0118 µM (active)	0.0149 µM (active)	0.0153 µM (active)	0.0203 µM (active)	0.0127 µM (active)	0.0173 µM (active)	–
Cc1cc(S(=O)(=O)Nc2nc(N)n[nH]2)c(Cl)cc1Cl	> 10 µM (inactive)	–	> 10 µM (inactive)	> 10 µM (inactive)	> 10 µM (inactive)	> 10 µM (inactive)	> 10 µM (inactive)	> 10 µM (inactive)	> 10 µM (inactive)	> 10 µM (inactive)	> 10 µM (inactive)	> 10 µM (inactive)	–	–	> 10 µM (inactive)	> 10 µM (inactive)	> 10 µM (inactive)	> 10 µM (inactive)	> 10 µM (inactive)	> 10 µM (inactive)
